# According to US12037339B2, “Substituted imidazoles as GLP-1 receptor agonists” (Eccogene Inc., priority 2020, dated 2024):
# pEC50: −log10 of the molar value.
# Target: (Homo sapiens, UniProt P43220)
# Assay: h-GLP-1 activity assay (cAMP HTRF, HEK293 cells with stable expression of human GLP-1)
# Format: cell-based
# Settings: relative EC50, 10 nM human GLP-1 set as 100% response, 30 min at 37° C.
# Procedure, shortened: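 cAMP accumulation (HTRF, 665/615 nm, interpolated from standard curve) after 30 min, 37 °C compound treatment of stable human GLP-1 HEK293 cells with 0.5 mM IBMX. EC50 by 4-parameter regression, reported relative to 10 nM GLP-1 (7-37) as full response.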
# Sequence of (Homo sapiens, UniProt P43220) (P43220 24-463): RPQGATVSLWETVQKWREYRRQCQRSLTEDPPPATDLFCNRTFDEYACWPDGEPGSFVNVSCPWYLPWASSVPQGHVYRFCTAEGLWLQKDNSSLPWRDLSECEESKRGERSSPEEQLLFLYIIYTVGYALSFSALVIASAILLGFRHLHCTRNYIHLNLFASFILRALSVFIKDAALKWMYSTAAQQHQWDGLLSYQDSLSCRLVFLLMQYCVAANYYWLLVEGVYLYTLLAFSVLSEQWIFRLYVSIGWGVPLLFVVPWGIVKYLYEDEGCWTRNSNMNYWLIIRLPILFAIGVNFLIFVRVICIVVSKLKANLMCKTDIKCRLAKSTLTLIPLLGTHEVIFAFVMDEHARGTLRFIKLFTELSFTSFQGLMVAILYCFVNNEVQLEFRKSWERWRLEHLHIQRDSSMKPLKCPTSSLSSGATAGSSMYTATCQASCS
row,SMILES,pEC50
1,"C[C@H]1c2c(nn(-c3cc(F)c(F)c(F)c3)c2-n2ccn(-c3ccc4c(cnn4C)c3F)c2=O)CCN1C(=O)c1cc2cc([C@@H]3CCOC(C)(C)C3)ccn2c1C1(c2noc(=O)[nH]2)CC1 (single isomer, unassigned) [Compound 72]",> 7.70
2,"C[C@H]1c2c(nn(-c3ccc(F)c(C(F)(F)F)c3)c2-n2ccn(-c3ccc4c(cnn4C)c3F)c2=O)CCN1C(=O)c1cc2cc([C@@H]3CCOC(C)(C)C3)ccn2c1C1(c2noc(=O)[nH]2)CC1 (single isomer, unassigned) [Compound 74]",> 7.70
3,"C[C@H]1c2c(nn(-c3cc(F)c(F)c(F)c3)c2-n2ccn(-c3ccc4c(cnn4C)c3F)c2=O)CCN1C(=O)c1cn2cc([C@@H]3CCOC(C)(C)C3)ccc2c1C1(c2noc(=O)[nH]2)CC1 (single isomer, unassigned) [Compound 75]",> 7.70
4,"Cc1cc(-n2nc3c(c2-n2ccn(-c4ccc5c(cnn5C)c4F)c2=O)[C@H](C)N(C(=O)c2cc4cc([C@@H]5CCOC(C)(C)C5)ccn4c2C2(c4noc(=O)[nH]4)CC2)CC3)ccc1F (single isomer, unassigned) [Compound 77]",> 7.70
5,"C[C@H]1c2c(nn(-c3ccc(F)c(F)c3)c2-n2ccn(-c3ccc4c(cnn4C)c3F)c2=O)CCN1C(=O)c1cc2cc([C@@H]3CCOC(C)(C)C3)ccn2c1C1(c2noc(=O)[nH]2)CC1 (single isomer, unassigned) [Compound 78]",> 7.70
6,"Cc1cc(-n2nc3c(c2-n2ccn(-c4ccn5c(C)nnc5c4)c2=O)[C@H](C)N(C(=O)c2cn4cc([C@@H]5CCOC(C)(C)C5)ccc4c2C2(c4noc(=O)[nH]4)CC2)CC3)cc(C)c1F (single isomer, unassigned) [Compound 79]",> 7.70
7,"C[C@H]1c2c(nn(-c3ccc(F)c(OC(F)(F)F)c3)c2-n2ccn(-c3ccc4c(cnn4C)c3F)c2=O)CCN1C(=O)c1cn2cc([C@@H]3CCOC(C)(C)C3)ccc2c1C1(c2noc(=O)[nH]2)CC1 (single isomer, unassigned) [Compound 80]",> 7.70
8,"C[C@H]1c2c(nn(-c3ccc(F)c(OC(F)(F)F)c3)c2-n2ccn(-c3ccc4c(cnn4C)c3F)c2=O)CCN1C(=O)c1cc2cc([C@@H]3CCOC(C)(C)C3)ccn2c1C1(c2noc(=O)[nH]2)CC1 (single isomer, unassigned) [Compound 81]",> 7.70
9,"Cc1cc(-n2nc3c(c2-n2ccn(-c4ccc5c(cnn5C)c4F)c2=O)[C@H](C)N(C(=O)c2nn4cc([C@H]5CCOC(C)(C)C5)ccc4c2C2(c4noc(=O)[nH]4)CC2)CC3)cc(C)c1F (single isomer, unassigned) [Compound 82]",7.00 to 7.70
10,"Cc1cc(-n2nc3c(c2-n2ccn(-c4ccc5c(cnn5C)c4F)c2=O)[C@H](C)N(C(=O)c2nn4cc([C@@H]5CCOC(C)(C)C5)ccc4c2C2(c4noc(=O)[nH]4)CC2)CC3)cc(C)c1F (single isomer, unassigned) [Compound 83]",> 7.70
11,"C[C@H]1c2c(nn(-c3ccc(F)c(C4CC4)c3)c2-n2ccn(-c3ccc4c(cnn4C)c3F)c2=O)CCN1C(=O)c1nn2cc([C@@H]3CCOC(C)(C)C3)ccc2c1C1(c2noc(=O)[nH]2)CC1 (single isomer, unassigned) [Compound 84]",> 7.70
12,"C[C@H]1c2c(nn(-c3ccc(F)c(C4CC4)c3)c2-n2ccn(-c3ccc4c(cnn4C)c3F)c2=O)CCN1C(=O)c1c(C2(c3noc(=O)[nH]3)CC2)c2ccc([C@@H]3CCOC(C)(C)C3)cn2c1Cl (single isomer, unassigned) [Compound 85]",7.00 to 7.70
13,"Cc1cc(-n2nc3c(c2-n2ccn(-c4ccc5c(cnn5C)c4F)c2=O)[C@H](C)N(C(=O)c2cn4cc([C@H]5CCOC6(CC6)C5)ccc4c2C2(c4noc(=O)[nH]4)CC2)CC3)cc(C)c1F (single isomer, unassigned) [Compound 86]",> 7.70
14,"Cc1cc(-n2nc3c(c2-n2ccn(-c4ccc5c(cnn5C)c4F)c2=O)[C@H](C)N(C(=O)c2cn4cc([C@@H]5CCOC6(CC6)C5)ccc4c2C2(c4noc(=O)[nH]4)CC2)CC3)cc(C)c1F (single isomer, unassigned) [Compound 87]",> 7.70
15,"C[C@H]1c2c(nn(-c3ccc(F)c(C4CC4)c3)c2-n2ccn(-c3ccc4c(cnn4C)c3F)c2=O)CCN1C(=O)c1c(Cl)c2cc([C@@H]3CCOC(C)(C)C3)ccn2c1C1(c2noc(=O)[nH]2)CC1 (single isomer, unassigned) [Compound 88]",< 7.00
16,"Cc1cc(-n2nc3c(c2-n2ccn(-c4ccc5c(cnn5C)c4F)c2=O)[C@H](C)N(C(=O)c2cn4cc(N5CCOC(C)(C)C5)ccc4c2C2(c4noc(=O)[nH]4)CC2)CC3)cc(C)c1F [Compound 1, (S)-3-(1-(6-(2,2-dimethylmorpholino)-2-(3-(3-(4-fluoro-1-methyl-1H-indazol-5-yl)-2-oxo-2,3-dihydro-1H-imidazol-1-yl)-2-(4-fluoro-3,5-dimethylphenyl)-4-methyl-4,5,6,7-tetrahydro-2H-pyrazolo[4,3-c]pyridine-5-carbonyl)indolizin-1-yl)cyclopropyl)-1,2,4-oxadiazol-5(4H)-one]",> 7.70
17,"Cc1cc(-n2nc3c(c2-n2ccn(-c4ccc5c(cnn5C)c4F)c2=O)[C@H](C)N(C(=O)c2cn4cc(-c5ccnc(C(F)(F)F)c5)ccc4c2C2(c4noc(=O)[nH]4)CC2)CC3)cc(C)c1F [Compound 2, (S)-3-(1-(2-(3-(3-(4-fluoro-1-methyl-1H-indazol-5-yl)-2-oxo-2,3-dihydro-1H-imidazol-1-yl)-2-(4-fluoro-3,5-dimethylphenyl)-4-methyl-4,5,6,7-tetrahydro-2H-pyrazolo[4,3-c]pyridine-5-carbonyl)-6-(2-(trifluoromethyl)pyridin-4-yl)indolizin-1-yl)cyclopropyl)-1,2,4-oxadiazol-5(4H)-one]",> 7.70
18,"Cc1cc(-n2nc3c(c2-n2ccn(-c4ccc5c(cnn5C)c4F)c2=O)[C@H](C)N(C(=O)c2cn4cc(-c5ccnc(C(F)(F)F)c5)ccc4c2Cc2noc(=O)[nH]2)CC3)cc(C)c1F [Compound 15, (S)-3-((2-(3-(3-(4-fluoro-1-methyl-1H-indazol-5-yl)-2-oxo-2,3-dihydro-1H-imidazol-1-yl)-2-(4-fluoro-3,5-dimethylphenyl)-4-methyl-4,5,6,7-tetrahydro-2H-pyrazolo[4,3-c]pyridine-5-carbonyl)-6-(2-(trifluoromethyl)pyridin-4-yl)indolizin-1-yl)methyl)-1,2,4-oxadiazol-5(4H)-one]",> 7.70

# Other lines, results leading:
row,pEC50,SMILES
1,7.00 to 7.70,"C[C@H]1c2c(nn(-c3ccc(F)c(C4CC4)c3)c2-n2ccn(-c3ccc4c(cnn4C)c3F)c2=O)CCN1C(=O)c1cn2nc([C@H]3CCOC(C)(C)C3)ccc2c1C1(c2noc(=O)[nH]2)CC1 (single isomer, unassigned) [Compound 89]"
2,> 7.70,"C[C@H]1c2c(nn(-c3ccc(F)c(C4CC4)c3)c2-n2ccn(-c3ccc4c(cnn4C)c3F)c2=O)CCN1C(=O)c1cn2cc([C@@H]3CCOC(C)(C)C3)cc(F)c2c1C1(c2noc(=O)[nH]2)CC1 (single isomer, unassigned) [Compound 92]"
3,> 7.70,"C[C@H]1c2c(nn(-c3ccc(F)c(C4CC4)c3)c2-n2ccn(-c3ccc4c(cnn4C)c3F)c2=O)CCN1C(=O)c1cc2cc([C@H]3CCOC(C)(C)C3)c(F)cn2c1C1(c2noc(=O)[nH]2)CC1 (single isomer, unassigned) [Compound 93]"
4,7.00 to 7.70,"C[C@H]1c2c(nn(-c3ccc(F)c(C4CC4)c3)c2-n2ccn(-c3ccc4c(cnn4C)c3F)c2=O)CCN1C(=O)c1cc2cc([C@@H]3CCOC(C)(C)C3)c(F)cn2c1C1(c2noc(=O)[nH]2)CC1 (single isomer, unassigned) [Compound 94]"
5,< 7.00,"C[C@H]1c2c(nn(-c3ccc(F)c(C4CC4)c3)c2-n2ccn(-c3ccc4c(cnn4C)c3F)c2=O)CCN1C(=O)c1cc2c(F)c([C@H]3CCOC(C)(C)C3)ccn2c1C1(c2noc(=O)[nH]2)CC1 (single isomer, unassigned) [Compound 95]"
6,> 7.70,"C[C@H]1c2c(nn(-c3ccc(F)c(C4CC4)c3)c2-n2ccn(-c3ccc4c(cnn4C)c3F)c2=O)CCN1C(=O)c1cc2c(F)c([C@@H]3CCOC(C)(C)C3)ccn2c1C1(c2noc(=O)[nH]2)CC1 (single isomer, unassigned) [Compound 96]"
7,< 7.00,"C[C@H]1c2c(nn(-c3ccc(F)c(C4CC4)c3)c2-n2ccn(-c3ccc4c(cnn4C)c3F)c2=O)CCN1C(=O)c1nc2cc([C@H]3CCOC(C)(C)C3)ccn2c1C1(c2noc(=O)[nH]2)CC1 (single isomer, unassigned) [Compound 97]"
8,7.00 to 7.70,"C[C@H]1c2c(nn(-c3ccc(F)c(C4CC4)c3)c2-n2ccn(-c3ccc4c(cnn4C)c3F)c2=O)CCN1C(=O)c1nc2cc([C@@H]3CCOC(C)(C)C3)ccn2c1C1(c2noc(=O)[nH]2)CC1 (single isomer, unassigned) [Compound 98]"
9,> 7.70,"C[C@H]1c2c(nn(-c3ccc(F)c(C4CC4)c3)c2-n2ccn(-c3ccc4c(cnn4C)c3F)c2=O)CCN1C(=O)c1cc2cc([C@H]3CCOC(C)(C)C3)cnn2c1C1(c2noc(=O)[nH]2)CC1 (single isomer, unassigned) [Compound 99]"
10,7.00 to 7.70,"C[C@H]1c2c(nn(-c3ccc(F)c(C4CC4)c3)c2-n2ccn(-c3ccc4c(cnn4C)c3F)c2=O)CCN1C(=O)c1cc2cc([C@@H]3CCOC(C)(C)C3)cnn2c1C1(c2noc(=O)[nH]2)CC1 (single isomer, unassigned) [Compound 100]"
11,< 7.00,"C[C@H]1c2c(nn(-c3ccc(F)c(C4CC4)c3)c2-n2ccn(-c3ccc4c(cnn4C)c3F)c2=O)CCN1C(=O)c1cc2nc([C@H]3CCOC(C)(C)C3)ccn2c1C1(c2noc(=O)[nH]2)CC1 (single isomer, unassigned) [Compound 101]"
12,> 7.70,"C[C@H]1c2c(nn(-c3ccc(F)c(C4CC4)c3)c2-n2ccn(-c3ccc4c(cnn4C)c3F)c2=O)CCN1C(=O)c1cc2nc([C@@H]3CCOC(C)(C)C3)ccn2c1C1(c2noc(=O)[nH]2)CC1 (single isomer, unassigned) [Compound 102]"
